Measured values from patent publication US8440853B2, “Ester compound and use thereof” (Sumitomo Chemical Company, Limited, priority 2010, dated 2013).

What was measured:
Assay type in all cases: in vivo
[1] = test system: German cockroaches (Blattella germanica); assay: Knock-down test, oil solution sprayed on German cockroaches (Test Example 2); conditions: adult German cockroaches, 0.1% (w/v) oil solution, 1.5 ml sprayed
Method: Zero point one (0.1) part of the compound of the present inventions (1), (2),(3) and (5) was dissolved in 10 parts of isopropyl alcohol and the solution was mixed with 89.9 parts of deodorized kerosene to prepare a 0.1% (w/v) oil solution.
Ten adult German cockroaches (Blattella germanica, 5 males and 5 females) were released in a test container (diameter 8.75 cm, 7.5 cm high, the bottom face is made of 16 mesh metallic wire), the inner face on which butter was applied, and the container was set at the bottom of a test chamber (bottom face: 46 cm×46 cm, height: 70 cm).
Each 1.5 ml of the oil solution of the compound of the present invention (1), (2), (3) and (5) was sprayed using a spray gun at a pressure of 0.4 kg/cm^2 from 60 cm higher than the upper face of the container. Thirty seconds after the spraying, the container was pulled out from the chamber. Two minutes after spraying, the number of knocked-down cockroaches was counted and a knock-down ratio was determined (repeated once). A knocked-down ratio was calculated by the following equation. Knocked-down ratio (%)=(Number of knocked-down cockroaches/Number of test cockroaches)×100 The results (2 minutes after spraying) are shown in Table 2.

[2] = test system: houseflies (Musca domestica); assay: Knock-down test, oil solution sprayed into glass chamber with houseflies (Test Example 4); conditions: adult houseflies, 0.00625% (w/v) oil solution, 0.7 ml sprayed into 70 cm cubic glass chamber
Method: Zero point zero zero six two five(0.00625) part of the compound of the present invention (1), (3) and (4) was dissolved in 10 parts of isopropyl alcohol, and the solution was mixed with 89.99375 parts of deodorized kerosene to prepare a 0.00625% (w/v) oil solution.
Ten adult houseflies (Musca domestica) were released in a cubic glass chamber having each side of 70 cm, and 0.7 ml of the oil solution of the compound of the present invention (1), (3) and (4) was sprayed into the chamber through a small window on the side of the chamber using a spraying gun at a pressure of 0.9 kg/cm^2. Seven minutes after spraying, the number of knocked-down flies was counted and a knock-down ratio was determined. A knocked-down ratio was calculated by the following equation. Knocked-down ratio (%)=(Number of knocked-down flies/Number of test flies)×100

[3] = test system: American cockroaches (Periplaneta Americana); assay: Knock-down test, oil solution sprayed on American cockroaches (Test Example 1); conditions: adult American cockroaches, 0.1% (w/v) oil solution, 1.5 ml sprayed
Method: Zero point one (0.1) part of the compound of the present inventions (1) was dissolved in 10 parts of isopropyl alcohol and the solution was mixed with 89.9 parts of deodorized kerosene to prepare a 0.1% (w/v) oil solution.
Six adult American cockroaches (Periplaneta Americana, 3 males and 3 females) were released in a test container (diameter 12.5 cm, 10 cm high, the bottom face is made of 16 mesh metallic wire), the inner face on which butter was applied, and the container was set at the bottom of a test chamber (bottom face: 46 cm×46 cm, height: 70 cm). One point five (1.5) ml of the oil solution of the compound of the present invention (1) was sprayed using a spray gun at a pressure of 0.4 kg/cm^2 from 60 cm higher than the upper face of the container. Thirty seconds after the spraying, the container was pulled out from the chamber. Ten minutes after spraying, the number of knocked-down cockroaches was counted and a knock-down ratio was determined (repeated twice). The knocked-down ratio was calculated by the following equation. Knocked-down ratio (%)=(Number of knocked-down cockroaches/Number of test cockroaches)×100

[4] = test system: common mosquitoes (Culex pipens pallens); assay: Knock-down test, oil solution sprayed into glass chamber with common mosquitoes (Test Example 3); conditions: adult female common mosquitoes, 0.00625% (w/v) oil solution sprayed into 70 cm cubic glass chamber
Method: Zero point zero zero six two five(0.00625) part of the compound of the present invention (1) was dissolved in 10 parts of isopropyl alcohol, and the solution was mixed with 89.99375 parts of deodorized kerosene to prepare a 0.00625% (w/v) oil solution.
Ten adult female common mosquitoes (Culex pipens pallens) were released in a cubic glass chamber having each side of 70 cm. The oil solution of the compound of the present invention (1) was sprayed into the chamber through a small window on the side of the chamber using a spraying gun at a pressure of 0.9 kg/cm^2. Ten minutes after spraying, the number of knocked-down mosquitoes was counted and a knock-down ratio was determined. A knocked-down ratio was calculated by the following equation. Knocked-down ratio (%)=(Number of knocked-down mosquitoes/Number of test mosquitoes)×100

| Structure (SMILES) | Knock-down ratio (%) 2 minutes after spraying [1] | Knock-down ratio (%) 7 minutes after spraying [2] | Knock-down ratio (%) 10 minutes after spraying [3] | Knock-down ratio (%) 10 minutes after spraying [4] |
| --- | --- | --- | --- | --- |
| CCSC(C#N)=C[C@@H]1[C@@H](C(=O)OCc2c(F)c(F)c(C)c(F)c2F)C1(C)C (relative stereo) [compound of the present invention (5), 4-methyl-2,3,5,6-tetrafluorobenzyl=(1R)-trans-3-[(1EZ)-2-cyano-2-(ethylthio)ethenyl]-2,2-dimethylcyclopropane carboxylate] | 100% |  |  |  |
| CCSC(C#N)=C[C@@H]1[C@@H](C(=O)OCc2c(F)c(F)c(COC)c(F)c2F)C1(C)C [compound of the present invention (3), 4-methoxymethyl-2,3,5,6-tetrafluorobenzyl=(1R)-trans-3-[(1EZ)-2-cyano-2-(ethylthio)ethenyl]-2,2-dimethylcyclopropane carboxylate] | 100% | 95% |  |  |
| COCc1c(F)c(F)c(COC(=O)[C@@H]2[C@@H](/C=C(\C#N)SC)C2(C)C)c(F)c1F [compound of the present invention (1), 4-methoxymethyl-2,3,5,6-tetrafluorobenzyl=(1R)-trans-3-[(1E)-2-cyano-2-(methylthio)ethenyl]-2,2-dimethylcyclopropane carboxylate] | 100% | 100% | 100% | 94% |
| CCCCSC(C#N)=C[C@@H]1[C@@H](C(=O)OCc2c(F)c(F)c(COC)c(F)c2F)C1(C)C [compound of the present invention (2), 4-methoxymethyl-2,3,5,6-tetrafluorobenzyl=(1R)-trans-3-[(1EZ)-2-cyano-2-(butylthio)ethenyl]-2,2-dimethylcyclopropane carboxylate] | 100% |  |  |  |
